Measured values from the NIST ThermoML archive (doi:10.1016/j.fluid.2010.10.028).

Assay: xn = mol fraction of the nth substance listed
Conditions: Liquid, Vibrating tube method

CC(C)=O [acetone] + CCCCCCC
Conditions	mass density [kg/m3]
407.24 K, 19810 kPa, x1 = 0.7024	645.07
407.24 K, 34830 kPa, x1 = 0.7024	668.11
407.24 K, 39830 kPa, x1 = 0.7024	674.52
407.24 K, 44820 kPa, x1 = 0.7024	680.48
407.24 K, 49810 kPa, x1 = 0.7024	686.06
407.24 K, 54890 kPa, x1 = 0.7024	691.39
407.24 K, 59890 kPa, x1 = 0.7024	696.35
407.24 K, 64860 kPa, x1 = 0.7024	701.02
407.24 K, 69850 kPa, x1 = 0.7024	705.48
407.24 K, 74830 kPa, x1 = 0.7024	709.73
407.24 K, 79820 kPa, x1 = 0.7024	713.81
407.24 K, 84800 kPa, x1 = 0.7024	717.74
407.24 K, 94760 kPa, x1 = 0.7024	725.11
407.24 K, 99830 kPa, x1 = 0.7024	728.64
407.24 K, 119800 kPa, x1 = 0.7024	741.56
407.25 K, 89790 kPa, x1 = 0.7024	721.47
407.25 K, 104820 kPa, x1 = 0.7024	732.04
407.25 K, 109820 kPa, x1 = 0.7024	735.31
407.25 K, 114820 kPa, x1 = 0.7024	738.47
407.25 K, 124810 kPa, x1 = 0.7024	744.56
407.25 K, 129820 kPa, x1 = 0.7024	747.45
417.16 K, 1870 kPa, x1 = 0.611	581.34
417.16 K, 4870 kPa, x1 = 0.611	591.69
417.16 K, 9860 kPa, x1 = 0.611	605.85
417.16 K, 14870 kPa, x1 = 0.611	617.52
417.16 K, 19870 kPa, x1 = 0.611	627.57
417.16 K, 29860 kPa, x1 = 0.611	644.4
417.16 K, 34860 kPa, x1 = 0.611	651.63
417.16 K, 44870 kPa, x1 = 0.611	664.46
417.16 K, 49860 kPa, x1 = 0.611	670.17
417.16 K, 54850 kPa, x1 = 0.611	675.54
417.16 K, 59830 kPa, x1 = 0.611	680.59
417.16 K, 64940 kPa, x1 = 0.611	685.5
417.16 K, 69910 kPa, x1 = 0.611	690.02
417.16 K, 74900 kPa, x1 = 0.611	694.35
417.16 K, 79880 kPa, x1 = 0.611	698.49
417.16 K, 84870 kPa, x1 = 0.611	702.46
417.16 K, 89850 kPa, x1 = 0.611	706.26
417.16 K, 94840 kPa, x1 = 0.611	709.93
417.16 K, 99820 kPa, x1 = 0.611	713.43
417.16 K, 119850 kPa, x1 = 0.611	726.48
417.17 K, 1870 kPa, x1 = 0.492	575.55
417.17 K, 4860 kPa, x1 = 0.492	585.56
417.17 K, 9850 kPa, x1 = 0.492	599.32
417.17 K, 24840 kPa, x1 = 0.611	636.42
417.17 K, 39880 kPa, x1 = 0.611	658.3
417.17 K, 44850 kPa, x1 = 0.492	656.44
417.17 K, 49850 kPa, x1 = 0.492	662.04
417.17 K, 54840 kPa, x1 = 0.492	667.29
417.17 K, 59840 kPa, x1 = 0.492	672.26
417.17 K, 104790 kPa, x1 = 0.611	716.82
417.17 K, 104800 kPa, x1 = 0.492	707.7
417.17 K, 109770 kPa, x1 = 0.492	710.89
417.17 K, 109780 kPa, x1 = 0.611	720.13
417.17 K, 114870 kPa, x1 = 0.611	723.4
417.17 K, 124850 kPa, x1 = 0.611	729.46
417.17 K, 129850 kPa, x1 = 0.611	732.41
417.18 K, 1840 kPa, x1 = 0.801	597.33
417.18 K, 4870 kPa, x1 = 0.801	607.96
417.18 K, 14870 kPa, x1 = 0.492	610.71
417.18 K, 19870 kPa, x1 = 0.492	620.5
417.18 K, 24830 kPa, x1 = 0.492	629.07
417.18 K, 29860 kPa, x1 = 0.492	636.88
417.18 K, 34860 kPa, x1 = 0.492	643.95
417.18 K, 39860 kPa, x1 = 0.492	650.43
417.18 K, 64820 kPa, x1 = 0.492	676.9
417.18 K, 69910 kPa, x1 = 0.492	681.45
417.18 K, 74890 kPa, x1 = 0.492	685.69
417.18 K, 79880 kPa, x1 = 0.492	689.75
417.18 K, 84870 kPa, x1 = 0.492	693.62
417.18 K, 89860 kPa, x1 = 0.492	697.34
417.18 K, 94830 kPa, x1 = 0.492	700.9
417.18 K, 99820 kPa, x1 = 0.492	704.36
417.18 K, 114850 kPa, x1 = 0.492	714.07
417.18 K, 119830 kPa, x1 = 0.492	717.08
417.18 K, 124850 kPa, x1 = 0.492	720.01
417.18 K, 129840 kPa, x1 = 0.492	722.86
417.19 K, 2070 kPa, x1 = 0.4	611.4
417.19 K, 2070 kPa, x1 = 0.8992	611.4
417.19 K, 5030 kPa, x1 = 0.4	621.55
417.19 K, 5030 kPa, x1 = 0.8992	621.55
417.19 K, 9870 kPa, x1 = 0.801	622.44
417.19 K, 10010 kPa, x1 = 0.4	635.78
417.19 K, 10010 kPa, x1 = 0.8992	635.78
417.19 K, 14860 kPa, x1 = 0.801	634.41
417.19 K, 15000 kPa, x1 = 0.4	647.66
417.19 K, 15000 kPa, x1 = 0.8992	647.66
417.19 K, 19860 kPa, x1 = 0.801	644.76
417.19 K, 19970 kPa, x1 = 0.4	657.99
417.19 K, 19970 kPa, x1 = 0.8992	657.99
417.19 K, 24870 kPa, x1 = 0.801	653.93
417.19 K, 24970 kPa, x1 = 0.4	667.12
417.19 K, 24970 kPa, x1 = 0.8992	667.12
417.19 K, 29860 kPa, x1 = 0.801	662.11
417.19 K, 29960 kPa, x1 = 0.4	675.37
417.19 K, 29960 kPa, x1 = 0.8992	675.37
417.19 K, 34850 kPa, x1 = 0.801	669.57
417.19 K, 34950 kPa, x1 = 0.4	682.9
417.19 K, 34950 kPa, x1 = 0.8992	682.9
417.19 K, 39860 kPa, x1 = 0.801	676.46
417.19 K, 39930 kPa, x1 = 0.4	689.8
417.19 K, 39930 kPa, x1 = 0.8992	689.8
417.19 K, 44860 kPa, x1 = 0.801	682.8
417.19 K, 44890 kPa, x1 = 0.7024	672.51
417.19 K, 49870 kPa, x1 = 0.801	688.76
417.19 K, 49890 kPa, x1 = 0.4	702.22
417.19 K, 49890 kPa, x1 = 0.7024	678.35
417.19 K, 49890 kPa, x1 = 0.8992	702.22
417.19 K, 54860 kPa, x1 = 0.801	694.3
417.19 K, 54870 kPa, x1 = 0.4	707.85
417.19 K, 54870 kPa, x1 = 0.8992	707.85
417.19 K, 54880 kPa, x1 = 0.7024	683.78
417.19 K, 59860 kPa, x1 = 0.7024	688.95
417.19 K, 59870 kPa, x1 = 0.801	699.57
417.19 K, 64830 kPa, x1 = 0.801	704.51
417.19 K, 69830 kPa, x1 = 0.801	709.22
417.19 K, 74920 kPa, x1 = 0.801	713.82
417.19 K, 79790 kPa, x1 = 0.7024	707.06
417.19 K, 79800 kPa, x1 = 0.4	732.02
417.19 K, 79800 kPa, x1 = 0.8992	732.02
417.19 K, 79910 kPa, x1 = 0.801	718.11
417.19 K, 84890 kPa, x1 = 0.801	722.24
417.19 K, 89750 kPa, x1 = 0.4	740.27
417.19 K, 89750 kPa, x1 = 0.8992	740.27
417.19 K, 94870 kPa, x1 = 0.801	730.03
417.19 K, 104800 kPa, x1 = 0.801	737.2
417.19 K, 114770 kPa, x1 = 0.801	743.97
417.19 K, 119800 kPa, x1 = 0.7024	735.65
417.19 K, 119830 kPa, x1 = 0.801	747.24
417.19 K, 124820 kPa, x1 = 0.7024	738.72
417.19 K, 124830 kPa, x1 = 0.801	750.39
417.19 K, 129810 kPa, x1 = 0.7024	741.7
417.19 K, 129840 kPa, x1 = 0.801	753.43
417.2 K, 1810 kPa, x1 = 0.7024	587.77
417.2 K, 4810 kPa, x1 = 0.7024	598.33
417.2 K, 9830 kPa, x1 = 0.7024	612.79
417.2 K, 14820 kPa, x1 = 0.7024	624.66
417.2 K, 19830 kPa, x1 = 0.7024	634.93
417.2 K, 24810 kPa, x1 = 0.7024	643.93
417.2 K, 29810 kPa, x1 = 0.7024	652.02
417.2 K, 34810 kPa, x1 = 0.7024	659.38
417.2 K, 39820 kPa, x1 = 0.7024	666.17
417.2 K, 44910 kPa, x1 = 0.4	696.21
417.2 K, 44910 kPa, x1 = 0.8992	696.21
417.2 K, 59870 kPa, x1 = 0.4	713.19
417.2 K, 59870 kPa, x1 = 0.8992	713.19
417.2 K, 64850 kPa, x1 = 0.4	718.24
417.2 K, 64850 kPa, x1 = 0.7024	693.8
417.2 K, 64850 kPa, x1 = 0.8992	718.24
417.2 K, 69820 kPa, x1 = 0.4	723.05
417.2 K, 69820 kPa, x1 = 0.8992	723.05
417.2 K, 69830 kPa, x1 = 0.7024	698.42
417.2 K, 74810 kPa, x1 = 0.4	727.63
417.2 K, 74810 kPa, x1 = 0.8992	727.63
417.2 K, 74820 kPa, x1 = 0.7024	702.83
417.2 K, 84780 kPa, x1 = 0.4	736.22
417.2 K, 84780 kPa, x1 = 0.7024	711.1
417.2 K, 84780 kPa, x1 = 0.8992	736.22
417.2 K, 89760 kPa, x1 = 0.7024	714.98
417.2 K, 89890 kPa, x1 = 0.801	726.21
417.2 K, 94720 kPa, x1 = 0.4	744.15
417.2 K, 94720 kPa, x1 = 0.8992	744.15
417.2 K, 94740 kPa, x1 = 0.7024	718.71
417.2 K, 99690 kPa, x1 = 0.4	747.91
417.2 K, 99690 kPa, x1 = 0.8992	747.91
417.2 K, 99840 kPa, x1 = 0.7024	722.39
417.2 K, 99840 kPa, x1 = 0.801	733.67
417.2 K, 104650 kPa, x1 = 0.4	751.51
417.2 K, 104650 kPa, x1 = 0.8992	751.51
417.2 K, 104810 kPa, x1 = 0.7024	725.87
417.2 K, 109620 kPa, x1 = 0.4	755.03
417.2 K, 109620 kPa, x1 = 0.8992	755.03
417.2 K, 109800 kPa, x1 = 0.801	740.64
417.2 K, 109810 kPa, x1 = 0.7024	729.22
417.2 K, 114590 kPa, x1 = 0.4	758.45
417.2 K, 114590 kPa, x1 = 0.8992	758.45
417.2 K, 114820 kPa, x1 = 0.7024	732.49
417.2 K, 119550 kPa, x1 = 0.4	761.72
417.2 K, 119550 kPa, x1 = 0.8992	761.72
417.2 K, 124810 kPa, x1 = 0.4	765.12
417.2 K, 124810 kPa, x1 = 0.8992	765.12
417.2 K, 129820 kPa, x1 = 0.4	768.24
417.2 K, 129820 kPa, x1 = 0.8992	768.24
